pIC50: −log10 of the molar value.

The assay deals with human-cGAS (h-cGAS) (Homo sapiens, UniProt Q8N884). Put plainly: hcGAS Kinase-Glo Assay. Particulars: 40 nM h-cGAS, 100 μM ATP, 100 μM GTP, 25 nM dsDNA, 3 h incubation, read-out: hcGAS potency IC50. Type of assay: biochemical. The gist of the method:
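Kinase-Glo luminescent read-out of human cGAS activity, following the published Lama et al. (2019) protocol with slightly altered conditions. Inhibition reported as IC50.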

Chain of human-cGAS (h-cGAS) (Q8N884 whole entry): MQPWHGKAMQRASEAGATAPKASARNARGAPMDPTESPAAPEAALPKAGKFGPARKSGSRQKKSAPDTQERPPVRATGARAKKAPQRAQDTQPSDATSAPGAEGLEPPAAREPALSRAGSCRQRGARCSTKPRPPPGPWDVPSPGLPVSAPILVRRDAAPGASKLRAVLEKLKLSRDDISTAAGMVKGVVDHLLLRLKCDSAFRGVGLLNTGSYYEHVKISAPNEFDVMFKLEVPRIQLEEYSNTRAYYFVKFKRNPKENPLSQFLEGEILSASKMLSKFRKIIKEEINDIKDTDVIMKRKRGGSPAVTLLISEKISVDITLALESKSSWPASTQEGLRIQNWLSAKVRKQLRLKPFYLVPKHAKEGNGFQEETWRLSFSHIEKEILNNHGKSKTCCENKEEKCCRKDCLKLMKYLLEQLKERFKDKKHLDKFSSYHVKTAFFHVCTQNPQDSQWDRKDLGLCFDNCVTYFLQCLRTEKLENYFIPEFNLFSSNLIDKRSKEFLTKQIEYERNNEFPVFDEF

`CSc1nnc(NC(=O)c2cn(CCC(C)(C)C)nn2)s1` [Compound 198, 1-(3,3-dimethylbutyl)-N-(5-(methylthio)-1,3,4-thiadiazol-2-yl)-1H-1,2,3-triazole-4-carboxamide]: the pIC50 (usually the IC50 on a negative log10 scale, so that one unit is a factor of ten) was at most 6.00.
With `O=C(Nc1nnc(-c2ccccc2Cl)s1)c1cc(O)no1` [Compound 55, N-(5-(2-chlorophenyl)-1,3,4-thiadiazol-2-yl)-3-hydroxyisoxazole-5-carboxamide], the pIC50 was above 7.00.
The figure for `O=C(Nc1nnc(-c2ccccc2Cl)s1)c1onc2c(C(=O)O)cccc12` [Compound 178, 3-((5-(2-chlorophenyl)-1,3,4-thiadiazol-2-yl)carbamoyl)benzo[c]isoxazole-7-carboxylic acid] is above 7.00.
The figure for `CSc1nnc(NC(=O)c2nnc(-c3ccccc3)o2)s1` [Compound 235, N-[5-(methylsulfanyl)-1,3,4-thiadiazol-2-yl]-5-phenyl-1,3,4-oxadiazole-2-carboxamide] is 6.00 to 6.30; for `CSc1nnc(NC(=O)c2onc3c2CCc2sc(C)nc2-3)s1` [Compound 181, 7-methyl-N-(5-(methylthio)-1,3,4-thiadiazol-2-yl)-4,5-dihydrothiazolo[5′,4′:5,6]benzo[1,2-c]isoxazole-3-carboxamide] it is 6.00 to 6.30.
As for `CSc1nnc(NC(=O)c2cc(-c3ccc(Cl)s3)on2)s1` [Compound 95, 5-(5-chlorothiophen-2-yl)-N-(5-(methylthio)-1,3,4-thiadiazol-2-yl)isoxazole-3-carboxamide], the figure is 6.00 to 6.30.
In the case of `CSc1nnc(NC(=O)c2onc3ccc(CN4CC[C@@H](O)[C@H](O)C4)cc23)s1` (racemic) [rac-183, 5-((3,4-rac-trans-dihydroxypiperidin-1-yl)methyl)-N-(5-(methylthio)-1,3,4-thiadiazol-2-yl)benzo[c]isoxazole-3-carboxamide], the pIC50 is at most 6.00.
The figure for `CSc1nnc(NC(=O)c2onc3ccc(C(O)c4ccccc4)cc23)s1` (stereo not shown) [Compound 166, 5-(hydroxy(phenyl)methyl)-N-(5-(methylthio)-1,3,4-thiadiazol-2-yl)benzo[c]isoxazole-3-carboxamide] is at most 6.00; for `CSc1nnc(NC(=O)c2cc(-c3ccccc3F)cc(=O)o2)s1` [Compound 237, 4-(2-fluorophenyl)-N-(5-methylsulfanyl-1,3,4-thiadiazol-2-yl)-6-oxo-pyran-2-carboxamide] it is 6.30 to 7.00; for `CSc1nnc(NC(=O)c2cc(-c3cccc4c3OCCN4)cc(=O)o2)s1` [Compound 275, 4-(3,4-dihydro-2H-benzo[b][1,4]oxazin-8-yl)-N-(5-(methylthio)-1,3,4-thiadiazol-2-yl)-2-oxo-2H-pyran-6-carboxamide] it is 6.30 to 7.00.
The figure for `CSc1nnc(NC(=O)c2onc3ccc(C)cc23)s1` [Compound 227, 5-methyl-N-[5-(methylsulfanyl)-1,3,4-thiadiazol-2-yl]-2,1-benzoxazole-3-carboxamide] is 6.00 to 6.30.
Take `CN(C)c1nnc(NC(=O)c2onc3c2ccc2cccnc23)s1` [Compound 14, N-(5-(dimethylamino)-1,3,4-thiadiazol-2-yl)isoxazolo[4,3-h]quinoline-3-carboxamide]: the negative logarithm of the IC50 (pIC50) is at most 6.00.
The figure for `O=C(Nc1nnc(-c2ccccc2Cl)s1)c1nnc(N2CCC[C@@H]2c2ccccn2)o1` [Compound 117, (R)-N-(5-(2-chlorophenyl)-1,3,4-thiadiazol-2-yl)-5-(2-(pyridin-2-yl)pyrrolidin-1-yl)-1,3,4-oxadiazole-2-carboxamide] is 6.30 to 7.00; for `CSc1nnc(NC(=O)c2nnn3c2ccc2ccccc23)s1` [Compound 190, N-(5-(methylthio)-1,3,4-thiadiazol-2-yl)-[1,2,3]triazolo[1,5-a]quinoline-3-carboxamide] it is at most 6.00; for `CSc1nnc(NC(=O)c2onc3ccc(Oc4ccccc4)cc23)s1` [Compound 165, N-(5-(methylthio)-1,3,4-thiadiazol-2-yl)-5-phenoxybenzo[c]isoxazole-3-carboxamide] it is 6.00 to 6.30.
As for `O=C(Nc1nnc(C(F)F)s1)c1onc2ccccc12` [Compound 18, N-(5-(difluoromethyl)-1,3,4-thiadiazol-2-yl)benzo[c]isoxazole-3-carboxamide], the figure is at most 6.00; as for `CSc1nsc(NC(=O)c2onc3c2ccc2cccnc23)n1` [Compound 11, N-(3-(methylthio)-1,2,4-thiadiazol-5-yl)isoxazolo[4,3-h]quinoline-3-carboxamide], 6.30 to 7.00.
As for `CSc1nnc(NC(=O)c2cc(-c3nccc4ccccc34)no2)s1` [Compound 150, 3-(Isoquinolin-1-yl)-N-(5-(methylthio)-1,3,4-thiadiazol-2-yl)isoxazole-5-carboxamide], the figure is 6.00 to 6.30.
As for `CSc1nnc(NC(=O)c2cc(-c3ccccc3)c(C)c(=O)o2)s1` [Compound 203, 3-methyl-N-(5-(methylthio)-1,3,4-thiadiazol-2-yl)-2-oxo-4-phenyl-2H-pyran-6-carboxamide], the pIC50 was 6.30 to 7.00.
As for `CSc1nnc(NC(=O)c2onc3c2CCCC3)s1` [Compound 67, N-(5-(methylthio)-1,3,4-thiadiazol-2-yl)-4,5,6,7-tetrahydrobenzo[c]isoxazole-3-carboxamide], the figure is 6.00 to 6.30.
The figure for `CSc1nnc(NC(=O)c2nnc(Cc3ccccc3)o2)s1` [Compound 259, 5-benzyl-N-(5-methylsulfanyl-1,3,4-thiadiazol-2-yl)-1,3,4-oxadiazole-2-carboxamide] is 6.00 to 6.30; for `O=C(Nc1nnc(-c2cccc(Cl)c2)s1)c1onc2ccccc12` [Compound 23, N-(5-(3-chlorophenyl)-1,3,4-thiadiazol-2-yl)benzo[c]isoxazole-3-carboxamide] it is at most 6.00; for `CSc1nnc(NC(=O)c2cc3ccccc3c(=O)o2)s1` [Compound 207, N-(5-(methylthio)-1,3,4-thiadiazol-2-yl)-1-oxo-1H-isochromene-3-carboxamide] it is at most 6.00.
The figure for `CSc1nnc(NC(=O)c2onc3ccc(Cc4ccc(O)c(O)c4)cc23)s1` [Compound 186, 5-(3,4-Dihydroxybenzyl)-N-(5-(methylthio)-1,3,4-thiadiazol-2-yl)benzo[c]isoxazole-3-carboxamide] is 6.00 to 6.30.
`CSc1nnc(NC(=O)c2nc(-c3ccccc3)no2)s1` [Compound 234, N-[5-(methylsulfanyl)-1,3,4-thiadiazol-2-yl]-3-phenyl-1,2,4-oxadiazole-5-carboxamide]: the negative-log IC50 (pIC50) is 6.00 to 6.30.
As for `CSc1nnc(NC(=O)c2ccnc(-c3ccccc3)c2)s1` [Compound 266, N-(5-(methylthio)-1,3,4-thiadiazol-2-yl)-2-phenylisonicotinamide], the figure is at most 6.00; as for `Nc1cc(C(=O)Nc2nnc(-c3ccccc3Cl)s2)on1` [Compound 4, 3-amino-N-(5-(2-chlorophenyl)-1,3,4-thiadiazol-2-yl)isoxazole-5-carboxamide], above 7.00.
The figure for `CSc1nnc(NC(=O)c2onc3c2CCc2cccnc2-3)s1` [Compound 173, N-(5-(Methylthio)-1,3,4-thiadiazol-2-yl)-4,5-dihydroisoxazolo[4,3-h]quinoline-3-carboxamide] is 6.00 to 6.30; for `O=C(Nc1nnc(-c2ccccc2Cl)s1)c1ccno1` [Compound 6, N-(5-(2-chlorophenyl)-1,3,4-thiadiazol-2-yl)isoxazole-5-carboxamide] it is 6.30 to 7.00; for `COc1cccc2c(C(=O)Nc3nnc(SC)s3)onc12` [Compound 230, 7-methoxy-N-[5-(methylsulfanyl)-1,3,4-thiadiazol-2-yl]-2,1-benzoxazole-3-carboxamide] it is 6.30 to 7.00.
In the case of `CSc1nnc(NC(=O)c2cc(-c3ccc(C)cc3)cc(=O)o2)s1` [Compound 250, N-(5-methylsulfanyl-1,3,4-thiadiazol-2-yl)-6-oxo-4-(p-tolyl)pyran-2-carboxamide], the pIC50 was 6.30 to 7.00.
The figure for `CCCc1nnc(NC(=O)c2onc3ccccc23)s1` [Compound 20, N-(5-propyl-1,3,4-thiadiazol-2-yl)benzo[c]isoxazole-3-carboxamide] is at most 6.00.
The figure for `CSc1nnc(NC(=O)c2nnc3n2CCN(C(=O)OC(C)(C)C)C3)s1` [Compound 98, tert-butyl 3-{[5-(methylsulfanyl)-1,3,4-thiadiazol-2-yl]carbamoyl}-5H,6H,8H-[1,2,4]triazolo[4,3-a]pyrazine-7-carboxylate] is at most 6.00; for `CSc1nnc(NC(=O)c2cc(-c3ccccc3-c3ccccc3)cc(=O)o2)s1` [Compound 182, 4-([1,1′-biphenyl]-2-yl)-N-(5-(methylthio)-1,3,4-thiadiazol-2-yl)-2-oxo-2H-pyran-6-carboxamide] it is 6.00 to 6.30; for `CSc1nnc(NC(=O)c2nnc3ccccn23)s1` [Compound 260] it is at most 6.00.
The figure for `CSc1nnc(NC(=O)c2cc(-c3cccc(C)c3)no2)s1` [Compound 219, 3-(3-methylphenyl)-N-[5-(methylsulfanyl)-1,3,4-thiadiazol-2-yl]-1,2-oxazole-5-carboxamide] is 6.00 to 6.30; for `O=C(Nc1nnc(-c2ccccc2Cl)s1)c1cc(C2CC2)no1` [Compound 39, N-(5-(2-chlorophenyl)-1,3,4-thiadiazol-2-yl)-3-cyclopropylisoxazole-5-carboxamide] it is 6.30 to 7.00; for `COCc1cc(C(=O)Nc2nnc(-c3ccccc3Cl)s2)on1` [Compound 170, N-(5-(2-chlorophenyl)-1,3,4-thiadiazol-2-yl)-3-(methoxymethyl)isoxazole-5-carboxamide] it is 6.30 to 7.00.
On to `O=C(NO)c1cc(C(=O)Nc2nnc(-c3ccccc3Cl)s2)on1` [Compound 90, N5-(5-(2-chlorophenyl)-1,3,4-thiadiazol-2-yl)-N3-hydroxyisoxazole-3,5-dicarboxamide], for which the pIC50 is 6.30 to 7.00.
As for `N#Cc1cc(C(=O)Nc2nnc(-c3ccccc3Cl)s2)on1` [Compound 37, N-(5-(2-chlorophenyl)-1,3,4-thiadiazol-2-yl)-3-cyanoisoxazole-5-carboxamide], the figure is above 7.00.
